From ChEMBL document CHEMBL5120826, “Effects of β-lapachone and β-nor-lapachone on multidrug efflux transporters and biofilms of Candida glabrata” (Bioorg Med Chem, 2022)
≈ marks a conversion by molar mass, not a printed value. Calls of active or inactive are those of the source. The calls are words filed in the database; no cut-off is given here.

What was measured:
Nakaseomyces glabratus [1] = test: Disruption of plasma membrane integrity in fluconazole resistant Candida glabrata 109 overexpressing CgCdr1p transporter assessed as fold increase in sytox green fluorescence intensity at 200 ug/ml incubated for 48 hrs by fluorescence based assay; format: functional; conditions: dose 200 µg/ml
Nakaseomyces glabratus [2] = test: Disruption of plasma membrane integrity in fluconazole resistant Candida glabrata 109 overexpressing CgCdr1p transporter assessed as fold increase in sytox green fluorescence intensity at 50 ug/ml incubated for 48 hrs by fluorescence based assay; format: functional; conditions: dose 50 µg/ml
Saccharomyces cerevisiae [3] = test: Antifungal activity against fluconazole resistant Saccharomyces cerevisiae overexpressing CgCdr2p transporter assessed as reduction in fungal growth incubated for 48 hrs by checkboard assay based microplate reader analysis; format: functional
Saccharomyces cerevisiae [4] = test: Synergistic antifungal activity against fluconazole resistant Saccharomyces cerevisiae overexpressing CgCdr1p transporter assessed as reduction in fungal growth incubated for 48 hrs in presence of lapachone by checkboard assay based microplate reader analysis; format: functional
Saccharomyces cerevisiae [5] = test: Synergistic antifungal activity against fluconazole resistant Saccharomyces cerevisiae overexpressing CgCdr2p transporter assessed as reduction in fungal growth incubated for 48 hrs in presence of lapachone by checkboard assay based microplate reader analysis; format: functional
Saccharomyces cerevisiae [6] = test: Synergistic antifungal activity against fluconazole resistant Saccharomyces cerevisiae overexpressing CgCdr1p transporter assessed as fractional inhibitory concentration incubated for 48 hrs in presence of lapachone by checkboard assay based microplate reader analysis; format: functional
Saccharomyces cerevisiae [7] = test: Synergistic antifungal activity against fluconazole resistant Saccharomyces cerevisiae overexpressing CgCdr2p transporter assessed as fractional inhibitory concentration incubated for 48 hrs in presence of lapachone by checkboard assay based microplate reader analysis; format: functional
Saccharomyces cerevisiae [8] = test: Synergistic antifungal activity against fluconazole resistant Saccharomyces cerevisiae overexpressing CgCdr1p transporter assessed as reduction in fungal growth incubated for 48 hrs in presence of fluconazole by checkboard assay based microplate reader analysis; format: functional
Saccharomyces cerevisiae [9] = test: Synergistic antifungal activity against fluconazole resistant Saccharomyces cerevisiae overexpressing CgCdr2p transporter assessed as reduction in fungal growth incubated for 48 hrs in presence of fluconazole by checkboard assay based microplate reader analysis; format: functional
Saccharomyces cerevisiae [10] = test: Synergistic antifungal activity against fluconazole resistant Saccharomyces cerevisiae overexpressing CgCdr1p transporter assessed as fractional inhibitory concentration in presence of fluconazole incubated for 48 hrs by checkboard assay based microplate reader analysis; format: functional
Saccharomyces cerevisiae [11] = test: Synergistic antifungal activity against fluconazole resistant Saccharomyces cerevisiae overexpressing CgCdr2p transporter assessed as fractional inhibitory concentration in presence of fluconazole incubated for 48 hrs by checkboard assay based microplate reader analysis; format: functional
Nakaseomyces glabratus [12] = test: Antifungal activity against fluconazole sensitive Candida glabrata ATCC 2001 assessed as reduction in fungal growth incubated for 48 hrs by checkboard assay based microplate reader analysis; format: functional
Nakaseomyces glabratus [13] = test: Additive antifungal activity against fluconazole resistant Candida glabrata 109 overexpressing CgCdr1p transporter assessed as reduction in fungal growth incubated for 48 hrs in presence of lapachone by checkboard assay based microplate reader analysis; format: functional
Nakaseomyces glabratus [14] = test: Additive antifungal activity against fluconazole resistant Candida glabrata 109 overexpressing CgCdr1p transporter assessed as reduction in fungal growth incubated for 48 hrs in presence of fluconazole by checkboard assay based microplate reader analysis; format: functional
Saccharomyces cerevisiae [15] = test: Antifungal activity against fluconazole resistant Saccharomyces cerevisiae overexpressing CgCdr1p transporter assessed as reduction in fungal growth incubated for 48 hrs in presence of fluconazole by serial dilution method; format: functional, organism-based
Saccharomyces cerevisiae [16] = test: Induction of ROS generation in fluconazole resistant Saccharomyces cerevisiae overexpressing CgCdr2p transporter assessed as fold increase in ROS level incubated for 90 mins by DCFH-DA dye based fluorescence assay; format: functional; conditions: 1.5 h
Saccharomyces cerevisiae [17] = test: Inhibition of fluconazole resistant Saccharomyces cerevisiae overexpressing CgCdr2p transporter ATPase activity assessed as reduction in inorganic phosphate release in presence of ATP incubated for 1 hr by Fiske and Sub barrow method; conditions: concentration not given here
Nakaseomyces glabratus [18] = test: Inhibition of fluconazole resistant Candida glabrata 109 overexpressing CgCdr1p transporter ATPase activity assessed as reduction in inorganic phosphate release in presence of ATP incubated for 1 hr by Fiske and Sub barrow method; conditions: concentration not given here
Erythrocyte [19] = test: Hemolytic activity in human erythrocytes assessed as haemoglobin release at 12.5 ug/ml incubated for 1 hr by absorbance based method; format: toxicity, cell-based; conditions: dose 12.5 µg/ml
Erythrocyte [20] = test: Hemolytic activity in human erythrocytes assessed as haemoglobin release at 12.5 ug/ml incubated for 1 hr in presence of fluconazole by absorbance based method; format: toxicity, cell-based; conditions: dose 12.5 µg/ml
[21] = Inhibition of fluconazole resistant Candida glabrata 109 overexpressing CgCdr1p transporter […] cell adhesion to polystyrene at 200 ug/ml incubated for 90 mins by MTT assay; format: functional; conditions: Nakaseomyces glabratus, 109, 1.5 h
Saccharomyces cerevisiae [22] = test: Synergistic antifungal activity against fluconazole resistant Saccharomyces cerevisiae overexpressing CgCdr1p transporter assessed as fractional inhibitory concentration index incubated for 48 hrs by checkboard assay based microplate reader analysis; format: functional
Erythrocyte [23] = test: Hemolytic activity in human erythrocytes assessed as haemoglobin release at 50 ug/ml incubated for 1 hr by absorbance based method; format: toxicity, cell-based; conditions: dose 50 µg/ml
Erythrocyte [24] = test: Hemolytic activity in human erythrocytes assessed as haemoglobin release at 50 ug/ml incubated for 1 hr in presence of fluconazole by absorbance based method; format: toxicity, cell-based; conditions: dose 50 µg/ml
Saccharomyces cerevisiae [25] = test: Additive antifungal activity against fluconazole resistant Saccharomyces cerevisiae overexpressing CgCdr1p transporter assessed as reduction in fungal growth incubated for 48 hrs in presence of lapachone by checkboard assay based microplate reader analysis; format: functional
Saccharomyces cerevisiae [26] = test: Additive antifungal activity against fluconazole resistant Saccharomyces cerevisiae overexpressing CgCdr1p transporter assessed as fractional inhibitory concentration incubated for 48 hrs in presence of lapachone by checkboard assay based microplate reader analysis; format: functional
Saccharomyces cerevisiae [27] = test: Additive antifungal activity against fluconazole resistant Saccharomyces cerevisiae overexpressing CgCdr1p transporter assessed as reduction in fungal growth incubated for 48 hrs in presence of fluconazole by checkboard assay based microplate reader analysis; format: functional
Saccharomyces cerevisiae [28] = test: Additive antifungal activity against fluconazole resistant Saccharomyces cerevisiae overexpressing CgCdr1p transporter assessed as fractional inhibitory concentration in presence of fluconazole incubated for 48 hrs by checkboard assay based microplate reader analysis; format: functional
Saccharomyces cerevisiae [29] = test: Additive antifungal activity against fluconazole resistant Saccharomyces cerevisiae overexpressing CgCdr1p transporter assessed as fractional inhibitory concentration index incubated for 48 hrs by checkboard assay based microplate reader analysis; format: functional

CC1(C)CCC2=C(O1)c1ccccc1C(=O)C2=O [LAPACHONE]
fold change (FC) (Nakaseomyces glabratus [1]): 3 | fold change (FC) (Nakaseomyces glabratus [2]): 1.6 | MIC (Saccharomyces cerevisiae [3]): 25 µg/mL (≈ 103 µM) | MIC (Saccharomyces cerevisiae [4]): 25 µg/mL | MIC (Saccharomyces cerevisiae [5]): 6.25 µg/mL | FIC (Saccharomyces cerevisiae [6]): 0.25 µg/mL | FIC (Saccharomyces cerevisiae [7]): 0.25 µg/mL | MIC (Saccharomyces cerevisiae [8]): 125 µg/mL | MIC (Saccharomyces cerevisiae [9]): 3.9 µg/mL | FIC (Saccharomyces cerevisiae [10]): 0.25 µg/mL | FIC (Saccharomyces cerevisiae [11]): 0.06 µg/mL | MIC (Nakaseomyces glabratus [12]): 12.5 µg/mL (≈ 51.6 µM) | MIC (Nakaseomyces glabratus [13]): 12.5 µg/mL | MIC (Nakaseomyces glabratus [14]): 31.2 µg/mL | Activity (Saccharomyces cerevisiae [15]): Active | fold change (FC) (Saccharomyces cerevisiae [16]): 3 | inhibition (Saccharomyces cerevisiae [17]): 46% | inhibition (Nakaseomyces glabratus [18]): 49% | Activity (Erythrocyte [19]): Non-Toxic | Activity (Erythrocyte [20]): Non-Toxic | inhibition at 200 µg/mL [21]: 44% | fractional inhibitory concentration index (FICI) (Saccharomyces cerevisiae [22]): 0.5

CC1(C)CC2=C(O1)c1ccccc1C(=O)C2=O [NOR-BETA-LAPACHONE]
MIC (Saccharomyces cerevisiae [3]): 25 µg/mL (≈ 110 µM) | MIC (Nakaseomyces glabratus [12]): 15.6 µg/mL (≈ 68.3 µM) | MIC (Nakaseomyces glabratus [13]): 50 µg/mL | MIC (Nakaseomyces glabratus [14]): 31.2 µg/mL | Activity (Saccharomyces cerevisiae [15]): Active | fold change (FC) (Saccharomyces cerevisiae [16]): 3 | Activity (Erythrocyte [23]): Non-Toxic | Activity (Erythrocyte [24]): Non-Toxic | MIC (Saccharomyces cerevisiae [25]): 25 µg/mL | FIC (Saccharomyces cerevisiae [26]): 0.5 µg/mL | MIC (Saccharomyces cerevisiae [27]): 62.5 µg/mL | FIC (Saccharomyces cerevisiae [28]): 0.125 µg/mL | fractional inhibitory concentration index (FICI) (Saccharomyces cerevisiae [29]): 0.625
